Experimental data: ChEMBL document CHEMBL4627293, “Synthesis and in vitro activity of asymmetric indole-based bisamidine compounds against Gram-positive and Gram-negative pathogens” (2020)
≈ marks a conversion by molar mass, not a printed value.

Experiments:
Format in all cases: functional
Proteus vulgaris = experiment: Antimicrobial activity against Proteus vulgaris ATCC 29905
Klebsiella pneumoniae [1] = experiment: Antimicrobial activity against NDM-1 producing Klebsiella pneumoniae ATCC BAA-2146
Klebsiella pneumoniae [2] = experiment: Antimicrobial activity against ESBL-producing Klebsiella pneumoniae ATCC 700603
Klebsiella pneumoniae [3] = experiment: Antimicrobial activity against Klebsiella pneumoniae 7
Providencia rettgeri = experiment: Antimicrobial activity against Providencia rettgeri ATCC 31052
Enterococcus faecalis [4] = experiment: Antimicrobial activity against Vancomycin-sensitive Enterococcus faecalis ATCC 29212
[5] = system: Acinetobacter calcoaceticus; experiment: Antimicrobial activity against Acinetobacter calcoaceticus ATCC 19606
Staphylococcus aureus [6] = experiment: Antimicrobial activity against methicillin-sensitive Staphylococcus aureus ATCC 29213
[7] = system: Staphylococcus epidermidis; experiment: Antimicrobial activity against methicillin-susceptible Staphylococcus epidermidis ATCC 12228
Enterococcus faecium = experiment: Antimicrobial activity against vancomycin-resistant Enterococcus faecium ATCC 700221
Citrobacter freundii = experiment: Antimicrobial activity against Citrobacter freundii ATCC 43864
Escherichia coli = experiment: Antimicrobial activity against Escherichia coli ATCC 25922
Enterococcus faecalis [8] = experiment: Antimicrobial activity against Vancomycin-resistant Enterococcus faecalis ATCC 51299
Staphylococcus aureus [9] = experiment: Antimicrobial activity against methicillin- resistant Staphylococcus aureus ATCC 33591
Pseudomonas aeruginosa = experiment: Antimicrobial activity against Pseudomonas aeruginosa ATCC 27853

| SMILES | MIC (Proteus vulgaris) [µg/mL] | MIC (Klebsiella pneumoniae [1]) [µg/mL] | MIC (Klebsiella pneumoniae [2]) [µg/mL] | MIC (Klebsiella pneumoniae [3]) [µg/mL] | MIC (Providencia rettgeri) [µg/mL] | MIC (Enterococcus faecalis [4]) [µg/mL] | MIC [5] [µg/mL] | MIC (Staphylococcus aureus [6]) [µg/mL] | MIC [7] [µg/mL] | MIC (Enterococcus faecium) [µg/mL] | MIC (Citrobacter freundii) [µg/mL] | MIC (Escherichia coli) [µg/mL] | MIC (Enterococcus faecalis [8]) [µg/mL] | MIC (Staphylococcus aureus [9]) [µg/mL] | MIC (Pseudomonas aeruginosa) [µg/mL] |
| --- | --- | --- | --- | --- | --- | --- | --- | --- | --- | --- | --- | --- | --- | --- | --- |
| CC(C)NC(=N)c1ccc2cc(-c3ccc(Oc4ccc(-c5cc6ccc(C(=N)NC(C)C)cc6[nH]5)nc4)cc3)[nH]c2c1 | 8 (≈ 14 µM) | 8 (≈ 14 µM) | 8 (≈ 14 µM) | 8 (≈ 14 µM) | 4 (≈ 7.02 µM) | 0.25 (≈ 0.439 µM) | 16 (≈ 28.1 µM) | 0.25 (≈ 0.439 µM) | 0.125 (≈ 0.219 µM) | 0.25 (≈ 0.439 µM) | 4 (≈ 7.02 µM) | 2 (≈ 3.51 µM) | 0.5 (≈ 0.878 µM) | 0.125 (≈ 0.219 µM) | 64 (≈ 112 µM) |
| CN(C)C(=N)c1ccc2cc(-c3ccc(Oc4ccc(-c5cc6ccc(C(=N)N(C)C)cc6[nH]5)c(Cl)c4)cc3)[nH]c2c1 | 128 (≈ 223 µM) | 128 (≈ 223 µM) | > 128 | > 128 | > 128 | 16 (≈ 27.8 µM) | > 128 | 8 (≈ 13.9 µM) | 2 (≈ 3.48 µM) | 16 (≈ 27.8 µM) | 64 (≈ 111 µM) | 32 (≈ 55.6 µM) | 16 (≈ 27.8 µM) | 2 (≈ 3.48 µM) | > 128 |
| CN[C@H](CC(C)C)C(=O)N[C@H]1C(=O)N[C@@H](CC(N)=O)C(=O)N[C@H]2C(=O)N[C@H]3C(=O)N[C@H](C(=O)N[C@H](C(=O)O)c4cc(O)cc(O)c4-c4cc3ccc4O)[C@H](O)c3ccc(c(Cl)c3)Oc3cc2cc(c3O[C@@H]2O[C@H](CO)[C@@H](O)[C@H](O)[C@H]2O[C@H]2C[C@](C)(N)[C@H](O)[C@H](C)O2)Oc2ccc(cc2Cl)[C@H]1O [VANCOMYCIN] |  |  |  |  |  | 1 (≈ 0.69 µM) |  |  | 0.5 (≈ 0.345 µM) |  |  |  |  |  |  |
| CNC(=N)c1ccc2cc(-c3ccc(Oc4ccc(-c5cc6ccc(C(=N)NC)cc6[nH]5)nc4)cc3)[nH]c2c1 | 128 (≈ 249 µM) | 64 (≈ 125 µM) | 64 (≈ 125 µM) | 64 (≈ 125 µM) | 128 (≈ 249 µM) | 2 (≈ 3.89 µM) | > 128 | 2 (≈ 3.89 µM) | 0.25 (≈ 0.487 µM) | 1 (≈ 1.95 µM) | 16 (≈ 31.2 µM) | 16 (≈ 31.2 µM) | 2 (≈ 3.89 µM) | 2 (≈ 3.89 µM) | 64 (≈ 125 µM) |
| CNC(=N)c1ccc2cc(-c3ccc(Oc4ccc(-c5cc6ccc(C(=N)NC)cc6[nH]5)cn4)cc3)[nH]c2c1 | > 128 | > 128 | > 128 | 128 (≈ 249 µM) | > 128 | 1 (≈ 1.95 µM) | 128 (≈ 249 µM) | 0.25 (≈ 0.487 µM) | 0.125 (≈ 0.243 µM) | 0.25 (≈ 0.487 µM) | 128 (≈ 249 µM) | 16 (≈ 31.2 µM) | 1 (≈ 1.95 µM) | 0.25 (≈ 0.487 µM) | > 128 |
| CNC(=N)c1ccc2cc(-c3ccc(Oc4ccc(-c5cc6ccc(C(=N)NC)cc6[nH]5)c(C(F)(F)F)c4)cc3)[nH]c2c1 | 16 (≈ 27.6 µM) | 8 (≈ 13.8 µM) | 16 (≈ 27.6 µM) | 8 (≈ 13.8 µM) | 32 (≈ 55.1 µM) | 0.5 (≈ 0.861 µM) | 32 (≈ 55.1 µM) | 0.5 (≈ 0.861 µM) | 0.25 (≈ 0.431 µM) | 0.5 (≈ 0.861 µM) | 8 (≈ 13.8 µM) | 4 (≈ 6.89 µM) | 1 (≈ 1.72 µM) | 0.5 (≈ 0.861 µM) | 64 (≈ 110 µM) |
| CN(C)C(=N)c1ccc2cc(-c3ccc(Oc4ccc(-c5cc6ccc(C(=N)N(C)C)cc6[nH]5)cn4)cc3)[nH]c2c1 | 8 (≈ 14.8 µM) | 8 (≈ 14.8 µM) | 8 (≈ 14.8 µM) | 4 (≈ 7.38 µM) | 8 (≈ 14.8 µM) | 2 (≈ 3.69 µM) | 128 (≈ 236 µM) | 0.5 (≈ 0.923 µM) | 0.25 (≈ 0.462 µM) | 1 (≈ 1.85 µM) | 4 (≈ 7.38 µM) | 4 (≈ 7.38 µM) | 2 (≈ 3.69 µM) | 0.25 (≈ 0.462 µM) | 64 (≈ 118 µM) |
| CNC(=N)c1ccc2cc(-c3ccc(Oc4ccc(-c5cc6ccc(C(=N)NC)cc6[nH]5)c(Cl)c4)cc3)[nH]c2c1 | 64 (≈ 117 µM) | 64 (≈ 117 µM) | 64 (≈ 117 µM) | 64 (≈ 117 µM) | 128 (≈ 234 µM) | 16 (≈ 29.2 µM) | 128 (≈ 234 µM) | 4 (≈ 7.31 µM) | 2 (≈ 3.66 µM) | 8 (≈ 14.6 µM) | 64 (≈ 117 µM) | 64 (≈ 117 µM) | 16 (≈ 29.2 µM) | 4 (≈ 7.31 µM) | 128 (≈ 234 µM) |
| CC(C)NC(=N)c1ccc2cc(-c3ccc(Oc4ccc(-c5cc6ccc(C(=N)NC(C)C)cc6[nH]5)c(C(F)(F)F)c4)cc3)[nH]c2c1 | 16 (≈ 25.1 µM) | 16 (≈ 25.1 µM) | 16 (≈ 25.1 µM) | 16 (≈ 25.1 µM) | 64 (≈ 101 µM) | 2 (≈ 3.14 µM) | 64 (≈ 101 µM) | 2 (≈ 3.14 µM) | 2 (≈ 3.14 µM) | 2 (≈ 3.14 µM) | 16 (≈ 25.1 µM) | 16 (≈ 25.1 µM) | 2 (≈ 3.14 µM) | 2 (≈ 3.14 µM) | 32 (≈ 50.3 µM) |
| CN(C)C(=N)c1ccc2cc(-c3ccc(Oc4ccc(-c5cc6ccc(C(=N)N(C)C)cc6[nH]5)c(C(F)(F)F)c4)cc3)[nH]c2c1 | 128 (≈ 210 µM) | > 128 | > 128 | > 128 | > 128 | 8 (≈ 13.1 µM) | > 128 | 2 (≈ 3.29 µM) | 2 (≈ 3.29 µM) | 8 (≈ 13.1 µM) | 64 (≈ 105 µM) | 64 (≈ 105 µM) | 8 (≈ 13.1 µM) | 2 (≈ 3.29 µM) | > 128 |
| CN(C)C(=N)c1ccc2cc(-c3ccc(Oc4ccc(-c5cc6ccc(C(=N)N(C)C)cc6[nH]5)cc4)cc3)[nH]c2c1 | 8 (≈ 14.8 µM) | 8 (≈ 14.8 µM) | 8 (≈ 14.8 µM) | 8 (≈ 14.8 µM) | 8 (≈ 14.8 µM) | 0.5 (≈ 0.925 µM) | > 128 | 0.25 (≈ 0.462 µM) | 0.125 (≈ 0.231 µM) | 2 (≈ 3.7 µM) | 8 (≈ 14.8 µM) | 4 (≈ 7.4 µM) | 1 (≈ 1.85 µM) | 0.25 (≈ 0.462 µM) | 128 (≈ 237 µM) |
| CN(C)C(=N)c1ccc2cc(-c3ccc(Oc4ccc(-c5cc6ccc(C(=N)N(C)C)cc6[nH]5)c(C(F)(F)F)c4)cn3)[nH]c2c1 | 32 (≈ 52.5 µM) | 32 (≈ 52.5 µM) | 32 (≈ 52.5 µM) | 32 (≈ 52.5 µM) | 128 (≈ 210 µM) | 2 (≈ 3.28 µM) | > 128 | 1 (≈ 1.64 µM) | 0.5 (≈ 0.82 µM) | 1 (≈ 1.64 µM) | 16 (≈ 26.2 µM) | 8 (≈ 13.1 µM) | 2 (≈ 3.28 µM) | 0.5 (≈ 0.82 µM) | > 128 |
| CC(C)NC(=N)c1ccc2cc(-c3ccc(Oc4ccc(-c5cc6ccc(C(=N)NC(C)C)cc6[nH]5)cn4)cc3)[nH]c2c1 | 16 (≈ 28.1 µM) | 16 (≈ 28.1 µM) | 8 (≈ 14 µM) | 8 (≈ 14 µM) | 16 (≈ 28.1 µM) | 1 (≈ 1.76 µM) | 64 (≈ 112 µM) | 0.25 (≈ 0.439 µM) | 0.25 (≈ 0.439 µM) | 0.25 (≈ 0.439 µM) | 8 (≈ 14 µM) | 4 (≈ 7.02 µM) | 1 (≈ 1.76 µM) | 0.25 (≈ 0.439 µM) | 32 (≈ 56.2 µM) |
| COc1cc(Oc2ccc(-c3cc4ccc(C(=N)NC(C)C)cc4[nH]3)cc2)ccc1-c1cc2ccc(C(=N)NC(C)C)cc2[nH]1 | 64 (≈ 107 µM) | 64 (≈ 107 µM) | 64 (≈ 107 µM) | 64 (≈ 107 µM) | 64 (≈ 107 µM) | 0.25 (≈ 0.418 µM) | > 128 | 0.25 (≈ 0.418 µM) | 0.125 (≈ 0.209 µM) | 0.25 (≈ 0.418 µM) | 32 (≈ 53.4 µM) | 16 (≈ 26.7 µM) | 1 (≈ 1.67 µM) | 0.25 (≈ 0.418 µM) | 128 (≈ 214 µM) |
| CNC(=N)c1ccc2cc(-c3ccc(Oc4ccc(-c5cc6ccc(C(=N)NC)cc6[nH]5)c(C(F)(F)F)c4)cn3)[nH]c2c1 | 64 (≈ 110 µM) | 16 (≈ 27.5 µM) | 32 (≈ 55 µM) | 16 (≈ 27.5 µM) | 64 (≈ 110 µM) | 1 (≈ 1.72 µM) | 64 (≈ 110 µM) | 0.5 (≈ 0.86 µM) | 0.25 (≈ 0.43 µM) | 0.5 (≈ 0.86 µM) | 16 (≈ 27.5 µM) | 8 (≈ 13.8 µM) | 1 (≈ 1.72 µM) | 0.5 (≈ 0.86 µM) | 64 (≈ 110 µM) |
